Experimental data: patent US20230180804A1, “FLAVOR COMPOSITION, AND FOOD AND BEVERAGE” (TAKASAGO INTERNATIONAL CORPORATION, priority 2020, published 2023)

Assay: Sensory evaluation of p-cresol odor masking in p-cresol-containing citrus-flavored confectionery (tablet)
Settings: for p-Cresol Odor Intensity: tablet with 200 ppb p-cresol, average score of 6 panelists, scale 0-4
Procedure: Lemon cold-pressed oil was added to the tablet having the composition presented in Table A at a concentration of 1 % by mass, and medium chain fatty acid triglycerides (MCT) was used to adjust p-cresol to a concentration of 0.1%, which was further added so as to reach 200 ppb in the citrus flavored confectionery. To this p-cresol-containing citrus-flavored confectionery, 1-oxacycloheptadecan-7-en-2-one was added at the concentrations presented in Table 12, and then tableting was performed to confirm the p-cresol odor intensity (masking effect) and the influence on the citrus flavor of each sample.
Six skilled panelists were selected to perform the same sensory evaluation as in Example 1. The results are as in Table 12, presenting the average score of the evaluation results for each panelist.

[1] = citrus-flavored confectionery (tablet) with 200 ppb p-cresol

## O=C1CCCCCCCCCCCCCCO1 [Pentalide, pentalide]
4 ppb added
  p-Cresol Odor Intensity: 2.3 points
40 ppb added
  p-Cresol Odor Intensity: 1.7 points
40 ppt added
  p-Cresol Odor Intensity: 2.8 points
400 ppb added
  p-Cresol Odor Intensity: 1.5 points
400 ppt added
  p-Cresol Odor Intensity: 2.7 points
[1]
  concentration at which the compound masks the p-cresol odor and does not affect the citrus flavor, lower limit: ≥ 400 ppt
  concentration at which the compound masks the p-cresol odor and does not affect the citrus flavor, upper limit: ≤ 400 ppb
